In US9211310B2, “Use of a Chinese medicine composition in preparing medicaments for treating secondary prevention of myocardial infarction” (TASLY PHARMACEUTICAL GROUP CO., LTD, priority 2010, dated 2015):

Tested on: patients after acute myocardial infarction
Test: Angina pectoris score, total and single (frequency/attack times, duration, pain degree, dose of nitroglycerin), same clinical trial
Assay type: in vivo, human
From the text: In order to better understand the present invention, a multi-center, randomized, double-blind, double-dummy and positive drug controlled trial had been conducted. 3508 patients who were in accordance with the diagnostic standards of AMI for 28 days to 2 years and differentiated as Qi deficiency and blood stagnation syndrome by TCM were studied. 0.5 g Chinese medicine composition prepared by the method of EXAMPLE 1 (Coded as QSYQ) was administrated half an hour after meal, 3 times per day. Aspirine was used as a positive drug. The patients were treated for 1 year and observed for 6 months.
They included the overall survival time, angina pectoris score, TCM symptom score and life quality score, where angina pectoris score, TCM symptom score and life quality score were evaluated at randomization, in 1st, 3rd, 6th, 9th, 12th month after treatment and 18th month after follow-up.
(§1) Total angina pectoris score was described on every observation period and the change of observation in comparison with baseline. T-test or Wilcoxon rank sum test were used for inter-group comparison. Grade of total score was evaluated on every observation and Wilcoxon rank sum test was used for inter-group comparison. T-test and Pairing signed rank sum test were used for analyzing the change of total score on every observation between groups in comparison with the baseline.
(§2) Single angina pectoris score was depicted on every observation time-point and the change of observation in comparison with baseline. Wilcoxon rank sum test was used for inter-group comparison. Pairing signed rank sum test was used for analyzing the change of total score on every observation between groups in comparison with the baseline.
as §1, with “comparison with the baseline. T-test” for “comparison with baseline. T-test”
as §2, with “described” for “depicted”

## CC(=O)Oc1ccccc1C(=O)O [Control group, aspirine]
1 month after treatment-baseline, change 0, FAS
  change of attack times score, patients (%): (74.81%)
1 month after treatment-baseline, change 0, PP
  change of attack times score, patients (%): (74.53%)
1 month after treatment-baseline, change 1, FAS
  change of attack times score, patients (%): (2.07%)
1 month after treatment-baseline, change 1, PP
  change of attack times score, patients (%): (1.95%)
1 month after treatment-baseline, change 2, FAS
  change of attack times score, patients (%): (2.35%)
1 month after treatment-baseline, change 2, PP
  change of attack times score, patients (%): (2.08%)
1 month after treatment-baseline, change 3, FAS
  change of attack times score, patients (%): (0.11%)
1 month after treatment-baseline, change 3, PP
  change of attack times score, patients (%): (0.13%)
1 month after treatment-baseline, change 4, FAS
  change of attack times score, patients (%): (0.06%)
1 month after treatment-baseline, change 4, PP
  change of attack times score, patients (%): (0.07%)
1 month after treatment-baseline, change −1, FAS
  change of attack times score, patients (%): (7.11%)
1 month after treatment-baseline, change −1, PP
  change of attack times score, patients (%): (7.06%)
1 month after treatment-baseline, change −2, FAS
  change of attack times score, patients (%): (11.99%)
1 month after treatment-baseline, change −2, PP
  change of attack times score, patients (%): (12.63%)
1 month after treatment-baseline, change −3, FAS
  change of attack times score, patients (%): (0.34%)
1 month after treatment-baseline, change −3, PP
  change of attack times score, patients (%): (0.40%)
1 month after treatment-baseline, change −4, FAS
  change of attack times score, patients (%): (1.03%)
1 month after treatment-baseline, change −4, PP
  change of attack times score, patients (%): (1.08%)
1 month after treatment-baseline, change −5, FAS
  change of attack times score, patients (%): (0.00%)
1 month after treatment-baseline, change −5, PP
  change of attack times score, patients (%): (0.00%)
1 month after treatment-baseline, change −6, FAS
  change of attack times score, patients (%): (0.11%)
1 month after treatment-baseline, change −6, PP
  change of attack times score, patients (%): (0.07%)
3 months after treatment, score 0, FAS
  attack times score, patients (%): (40.02%)
3 months after treatment, score 0, PP
  attack times score, patients (%): (40.46%)
3 months after treatment, score 1, FAS
  attack times score, patients (%): (14.11%)
3 months after treatment, score 1, PP
  attack times score, patients (%): (13.92%)
3 months after treatment, score 2, FAS
  attack times score, patients (%): (41.46%)
3 months after treatment, score 2, PP
  attack times score, patients (%): (41.89%)
3 months after treatment, score 4, FAS
  attack times score, patients (%): (4.30%)
3 months after treatment, score 4, PP
  attack times score, patients (%): (3.60%)
3 months after treatment, score 6, FAS
  attack times score, patients (%): (0.11%)
3 months after treatment, score 6, PP
  attack times score, patients (%): (0.14%)
3 months after treatment-baseline, change 0, FAS
  change of attack times score, patients (%): (65.52%)
3 months after treatment-baseline, change 0, PP
  change of attack times score, patients (%): (65.15%)
3 months after treatment-baseline, change 1, FAS
  change of attack times score, patients (%): (3.10%)
3 months after treatment-baseline, change 1, PP
  change of attack times score, patients (%): (2.79%)
3 months after treatment-baseline, change 2, FAS
  change of attack times score, patients (%): (2.24%)
3 months after treatment-baseline, change 2, PP
  change of attack times score, patients (%): (1.83%)
3 months after treatment-baseline, change 3, FAS
  change of attack times score, patients (%): (0.00%)
3 months after treatment-baseline, change 4, FAS
  change of attack times score, patients (%): (0.17%)
3 months after treatment-baseline, change 4, PP
  change of attack times score, patients (%): (0.14%)
3 months after treatment-baseline, change −1, FAS
  change of attack times score, patients (%): (10.96%)
3 months after treatment-baseline, change −1, PP
  change of attack times score, patients (%): (11.21%)
3 months after treatment-baseline, change −2, FAS
  change of attack times score, patients (%): (15.78%)
3 months after treatment-baseline, change −2, PP
  change of attack times score, patients (%): (16.51%)
3 months after treatment-baseline, change −3, FAS
  change of attack times score, patients (%): (0.46%)
3 months after treatment-baseline, change −3, PP
  change of attack times score, patients (%): (0.54%)
3 months after treatment-baseline, change −4, FAS
  change of attack times score, patients (%): (1.43%)
3 months after treatment-baseline, change −4, PP
  change of attack times score, patients (%): (1.56%)
3 months after treatment-baseline, change −5, FAS
  change of attack times score, patients (%): (0.11%)
3 months after treatment-baseline, change −5, PP
  change of attack times score, patients (%): (0.14%)
3 months after treatment-baseline, change −6, FAS
  change of attack times score, patients (%): (0.23%)
3 months after treatment-baseline, change −6, PP
  change of attack times score, patients (%): (0.14%)
6 months after treatment, score 0, FAS
  attack times score, patients (%): (44.55%)
6 months after treatment, score 0, PP
  attack times score, patients (%): (45.98%)
6 months after treatment, score 1, FAS
  attack times score, patients (%): (15.54%)
6 months after treatment, score 1, PP
  attack times score, patients (%): (15.92%)
6 months after treatment, score 2, FAS
  attack times score, patients (%): (36.81%)
6 months after treatment, score 2, PP
  attack times score, patients (%): (36.17%)
6 months after treatment, score 4, FAS
  attack times score, patients (%): (3.04%)
6 months after treatment, score 4, PP
  attack times score, patients (%): (1.85%)
6 months after treatment, score 6, FAS
  attack times score, patients (%): (0.06%)
6 months after treatment, score 6, PP
  attack times score, patients (%): (0.07%)
6 months after treatment-baseline, change 0, FAS
  change of attack times score, patients (%): (57.95%)
6 months after treatment-baseline, change 0, PP
  change of attack times score, patients (%): (56.80%)
6 months after treatment-baseline, change 1, FAS
  change of attack times score, patients (%): (2.47%)
6 months after treatment-baseline, change 1, PP
  change of attack times score, patients (%): (1.92%)
6 months after treatment-baseline, change −1, FAS
  change of attack times score, patients (%): (15.20%)
6 months after treatment-baseline, change −1, PP
  change of attack times score, patients (%): (16.07%)
6 months after treatment-baseline, change −2, FAS
  change of attack times score, patients (%): (18.70%)
6 months after treatment-baseline, change −2, PP
  change of attack times score, patients (%): (19.92%)
6 months after treatment-baseline, change −3, FAS
  change of attack times score, patients (%): (0.92%)
6 months after treatment-baseline, change −3, PP
  change of attack times score, patients (%): (1.10%)
6 months after treatment-baseline, change −4, FAS
  change of attack times score, patients (%): (1.78%)
6 months after treatment-baseline, change −4, PP
  change of attack times score, patients (%): (1.92%)
6 months after treatment-baseline, change −5, FAS
  change of attack times score, patients (%): (0.00%)
6 months after treatment-baseline, change −5, PP
  change of attack times score, patients (%): (0.00%)
6 months after treatment-baseline, change −6, FAS
  change of attack times score, patients (%): (0.34%)
6 months after treatment-baseline, change −6, PP
  change of attack times score, patients (%): (0.27%)
9 months after treatment, score 0, FAS
  attack times score, patients (%): (47.31%)
9 months after treatment, score 0, PP
  attack times score, patients (%): (49.06%)
9 months after treatment, score 1, FAS
  attack times score, patients (%): (20.30%)
9 months after treatment, score 1, PP
  attack times score, patients (%): (21.62%)
9 months after treatment, score 2, FAS
  attack times score, patients (%): (30.22%)
9 months after treatment, score 2, PP
  attack times score, patients (%): (28.34%)
9 months after treatment, score 4, FAS
  attack times score, patients (%): (2.06%)
9 months after treatment, score 4, PP
  attack times score, patients (%): (0.83%)
9 months after treatment, score 6, FAS
  attack times score, patients (%): (0.11%)
9 months after treatment, score 6, PP
  attack times score, patients (%): (0.14%)
12 months after treatment, score 0, FAS
  attack times score, patients (%): (52.12%)
12 months after treatment, score 0, PP
  attack times score, patients (%): (55.03%)
12 months after treatment, score 1, FAS
  attack times score, patients (%): (22.02%)
12 months after treatment, score 1, PP
  attack times score, patients (%): (23.88%)
12 months after treatment, score 2, FAS
  attack times score, patients (%): (23.91%)
12 months after treatment, score 2, PP
  attack times score, patients (%): (20.53%)
12 months after treatment, score 4, FAS
  attack times score, patients (%): (1.89%)
12 months after treatment, score 4, PP
  attack times score, patients (%): (0.56%)
12 months after treatment, score 6, FAS
  attack times score, patients (%): (0.06%)
12 months after treatment-baseline, change 0, FAS
  change of attack times score, patients (%): (45.61%)
12 months after treatment-baseline, change 0, PP
  change of attack times score, patients (%): (41.86%)
12 months after treatment-baseline, change 1, FAS
  change of attack times score, patients (%): (2.07%)
12 months after treatment-baseline, change 1, PP
  change of attack times score, patients (%): (1.33%)
12 months after treatment-baseline, change 2, FAS
  change of attack times score, patients (%): (1.72%)
12 months after treatment-baseline, change 2, PP
  change of attack times score, patients (%): (1.19%)
12 months after treatment-baseline, change 3, FAS
  change of attack times score, patients (%): (0.06%)
12 months after treatment-baseline, change 4, FAS
  change of attack times score, patients (%): (0.17%)
12 months after treatment-baseline, change 4, PP
  change of attack times score, patients (%): (0.14%)
12 months after treatment-baseline, change −1, FAS
  change of attack times score, patients (%): (22.89%)
12 months after treatment-baseline, change −1, PP
  change of attack times score, patients (%): (25.44%)
12 months after treatment-baseline, change −2, FAS
  change of attack times score, patients (%): (23.01%)
12 months after treatment-baseline, change −2, PP
  change of attack times score, patients (%): (25.02%)
12 months after treatment-baseline, change −3, FAS
  change of attack times score, patients (%): (0.86%)
12 months after treatment-baseline, change −3, PP
  change of attack times score, patients (%): (1.05%)
12 months after treatment-baseline, change −4, FAS
  change of attack times score, patients (%): (3.16%)
12 months after treatment-baseline, change −4, PP
  change of attack times score, patients (%): (3.56%)
12 months after treatment-baseline, change −5, FAS
  change of attack times score, patients (%): (0.06%)
12 months after treatment-baseline, change −5, PP
  change of attack times score, patients (%): (0.07%)
12 months after treatment-baseline, change −6, FAS
  change of attack times score, patients (%): (0.40%)
12 months after treatment-baseline, change −6, PP
  change of attack times score, patients (%): (0.35%)
Baseline, score 0, FAS
  attack times score, patients (%): (27.54%)
Baseline, score 0, PP
  attack times score, patients (%): (26.99%)
Baseline, score 1, FAS
  attack times score, patients (%): (9.06%)
